# Experiments:
# [1] = test system: cytochrome P-450 2E1; conditions: cited from earlier work; for effect on cytochrome P-450 2E1 expression: literature / inventors' submitted paper
# [2] = test system: p-nitrophenol hydroxylase; test: p-Nitrophenol hydroxylase activity in combination with INAH (Experimental Example 2(2)); format: in vivo, Sprague-Dawley rat; conditions: INAH alone = 100%; INAH plus compound, each 200 mg/kg i.p.
# Method: Thus, 1 mg of microsomes and 1mM p-nitrophenol were added to 0.6 ml of 0.1M potassium phosphate buffer(pH 6.8) to make the total volume of 0.9 ml. The resulting mixture was preliminarily reacted in a 37° C. incubator for 2 minutes and started to react while adding 1 mM NADPH(0.1 ml). After 3 minutes, 0.5 ml of 0.6N perchloric acid was added to develop a color and the absorbance at 546 nm was measured at once. The enzyme activity was expressed in terms of mole concentration of 4-nitrocatechol, the product of reaction for 1 minute.
# (§1) In order to examine the effect of the compound of the present invention on the activity of the enzymes involved in phase I reaction when administered in combination with INAH, the experiments were carried out as follows:
# (§2) Eight groups of Sprague-Dawley rat weighing 190±30 g were intraperitoneally administered with INAH(Group 1), or INAH plus the compounds of Examples 2 to 8(Groups 2 to 8), each in a dose of 200 mg/kg. The inventive compounds and INAH were diluted with corn oil and PBS respectively, and the test compounds were administered just after administering INAH.
# (§3) The changes in the activity of p-nitrophenol hydroxylase and aniline hydroxylase were measured by following the same procedure as in Experimental Example 1(2-1) and (2-2). The activity of enzymes was determined by considering the activity of enzyme when INAH alone was administered as 100%.
# [3] = test system: aniline hydroxylase; test: Aniline hydroxylase activity in combination with INAH (Experimental Example 2(2)); format: in vivo, Sprague-Dawley rat; conditions: for Aniline hydroxylase, Amount: INAH 200 mg/kg i.p., alone or plus compound 200 mg/kg; for Aniline hydroxylase, Activity: INAH alone = 100%; for Aniline hydroxylase, Activity / inhibition of expression of aniline hydroxylase induced by INAH: INAH plus compound, each 200 mg/kg i.p.; for inhibition of expression of aniline hydroxylase induced by INAH: in words
# Method: Thus, 1 mg of microsomes and 5 mM aniline were added to 0.6 ml of 0.1M potassium phosphate buffer(pH 6.8) to make the total volume of 0.9 ml. 1 mM NADPH was added to make the total volume of 1.0 ml and the resulting mixture was reacted at 37° C. After 10 minutes, 20% trichloroacetic acid was added to stop the reaction and the reaction mixture was centrifuged. To 1 ml of supernatant were added 0.1 ml of 5% phenol and 0.1 ml of 2.5N sodium carbonate, dissolved in 0.1N NaOH. The mixture was allowed to stand for 30 minutes to develop a color and the absorbance at 630 nm was measured at once. The enzyme activity was expressed in terms of mole concentration of 4-aminophenol, the product of reaction for 1 minute.
# as §1, §2, §3
# [4] = test system: Glutathion S-transferase (GST); test: GST activity, administered alone or in combination with INAH (Experimental Example 4(2)); format: in vivo, Sprague-Dawley rat; conditions: for induction of expression of glutathione S-transferase when INAH is administered: in words; for increase of expression of glutathione S-transferase: Table 3
# Method: Thus, to 25 μg(0.1 ml) of cytosol protein were added 0.1 mM […] and 1.0 mM glutathione as substrates, and 0.1M potassium phosphate were added to make the total volume of 1.0 ml(pH 6.4). The resulting mixture was allowed to stand at room temperature for 2 minutes and measured for its absorbance at 340 nm at intervals of 15 seconds during the period of 1 minute. As a reference, a cytosol protein denatured by heating was used. The activity of GST was calculated by measuring the change of absorbance for the period of 1 minute and employing the extinction coefficient of 9.6 mM^-1 cm^-1.
# In order to examine the effect of the compound of the present invention on the activity of the enzymes involved in phase II reaction when administered alone or in combination with INAH, the experiments were carried out as follows:
# Sixteen groups of Sprague-Dawley rat weighing 190±30 g were intraperitoneally administered with corn oil(Group 1), compounds of Examples 2 to 8(Groups 2 to 8), INAH(Group 9), or INAH plus the compounds of Examples 2 to 8(Groups 10 to 16), each in a dose of 200 mg/kg. The inventive compounds and INAH were diluted with corn oil, and the test compounds were administered just after administering INAH.
# The change in the activity of GST was measured by following the same procedure as in Experimental Example 3(2). The activity of enzyme was determined by considering the activity of enzyme when corn oil or INAH alone was administered as 100%.
# [5] = test system: p-nitrophenol hydroxylase; test: p-Nitrophenol hydroxylase activity in combination with INAH (Experimental Example 2(2)); format: in vivo, Sprague-Dawley rat; conditions: for p-Nitrophenol hydrolase, Amount: INAH 200 mg/kg i.p., alone or plus compound 200 mg/kg; for inhibition of expression of p-nitrophenol hydroxylase induced by INAH: INAH plus compound, each 200 mg/kg i.p., in words
# [6] = test system: enzymes involved in phase II reactions; conditions: literature; cited from earlier work
# [7] = test system: cancers; conditions: literature; cited from earlier work
# [8] = test system: P450 2E1; test: Immunoblot analysis of P-450 2E1 expression when administered together with INAH (Experimental Example 2(1)); format: in vivo, Sprague-Dawley rat; conditions: 200 mg/kg i.p. plus INAH 200 mg/kg; FIG. 5
# Method: To the first group as a control group, corn oil was administered intraperitoneally in an amount of 0.1 ml/200 g body weight. The second group was administered intraperitoneally INAH diluted with PBS in a dose of 200 mg/kg body weight. […] The hepatic microsomes were separated and subjected to Western blot analysis on SDS-PAGE by following the same procedure as in the above Experimental Example 1 (1).
# [9] = INAH alone or INAH plus compound, each 200 mg/kg i.p.
# [10] = INAH plus compound, each 200 mg/kg i.p., INAH alone = 100%
# [11] = compound alone, 200 mg/kg i.p., corn oil = 100%
induction of expression of glutathione S-transferase when INAH is administered ([4]; INAH plus compound),inhibition of expression of aniline hydroxylase induced by INAH [3],inhibition of expression of p-nitrophenol hydroxylase induced by INAH [5],suppression of enzyme (P450 2E1) expression induced by INAH [8],Compound,effect on cytochrome P-450 2E1 expression [1],"p-Nitrophenol hydrolase, Activity [2]","Aniline hydroxylase, Amount [3]","Aniline hydroxylase, Activity [3]","Glutathion S-transferase, Amount [4, 9]","Glutathion S-transferase, Activity [4, 10]","Glutathion S-transferase, Amount ([4]; compound alone, 200 mg/kg i.p.)","Glutathion S-transferase, Activity [4, 11]","p-Nitrophenol hydrolase, Amount [5]","increase of expression of glutathione S-transferase ([4]; compound alone, 200 mg/kg i.p.)",induction of enzymes involved in phase II reactions [6],suppression of cytochrome P-450 2E1 induced by pyrazine ([1]; inventors' submitted paper),cancer suppression [7]
,,,,c1cnccn1 [pyrazine],inducing cytochrome P-450 2E1,,,,,,,,,,,,
,,,,"c1ccc(CSc2cnccn2)cc1 [Example 2, 2-(benzylthio)pyrazine]",,78%,1.070 nmol/min/mg protein,74%,2.675 nmol/min/mg protein,133%,2.533 nmol/min/mg protein,147%,4.52 nmol/min/mg protein,,,,
strongly induce expression of enzyme,,,,"c1coc(CSc2cnccn2)c1 [Example 5, 2-(furfurylthio)pyrazine]",,61%,0.972 nmol/min/mg protein,67%,3.029 nmol/min/mg protein,151%,2.996 nmol/min/mg protein,174%,3.53 nmol/min/mg protein,≥ 70%,,,
,superior inhibitory action,superior inhibitory action,,"CC=CCSc1cnccn1 [Example 7, 2-(2-butenylthio)pyrazine]",,40%,0.712 nmol/min/mg protein,49%,2.263 nmol/min/mg protein,113%,3.046 nmol/min/mg protein,177%,2.33 nmol/min/mg protein,≥ 70%,,,
,,,,"Cc1cc(C(C)(C)C)c(O)c(C(C)(C)C)c1 [butylhydroxytoluene, 3,5-ditert-butyl-4-hydroxytoluene]",,,,,,,,,,,shows a anti-cancer activity by inducing enzymes involved in phase II reactions,,
,,,,2(3)-tert-butyl-4-hydroxyanisole [butylhydroxyanisole],,,,,,,,,,,shows an anti-cancer activity by inducing enzymes involved in phase II reactions,,
,,,,"C=CCSCC=C [allylsulfide, diallylsulfide]",strongly inhibits the expression of cytochrome P-450 2E1,,,,,,,,,,,completely suppress cytochrome P-450 2E1 induced by the action of pyrazine,strongly suppress liver and colon cancers
,,,,Cc1c(-c2cnccn2)ssc1=S [Oltipraz],,,,,,,,,,,ability of inducing enzymes of phase II reactions,,can suppress lung and stomach cancers
,,,,"C=C(C)CCSc1cnccn1 [Example 6, 2-(3-methyl-3-butenylthio)pyrazine]",,56%,0.879 nmol/min/mg protein,60%,2.375 nmol/min/mg protein,118%,2.558 nmol/min/mg protein,148%,3.25 nmol/min/mg protein,,,,
,,,,"NNC(=O)c1ccncc1 [INAH, isoniazid, reference compound]",,100%,1.453 nmol/min/mg protein,100%,2.008 nmol/min/mg protein,100%,,,5.80 nmol/min/mg protein,,,,
strongly induce expression of enzyme,,,,"CC(C)=CCSc1cnccn1 [Example 3, 2-(3-methyl-2-butenylthio)pyrazine]",,73%,1.108 nmol/min/mg protein,76%,3.071 nmol/min/mg protein,153%,2.708 nmol/min/mg protein,157%,4.23 nmol/min/mg protein,,,,
,,,,"C(=Cc1ccccc1)CSc1cnccn1 [Example 4, 2-(cinnamylthio)pyrazine]",,64%,0.972 nmol/min/mg protein,67%,2.683 nmol/min/mg protein,134%,2.892 nmol/min/mg protein,168%,3.69 nmol/min/mg protein,,,,
strongly induce expression of enzyme,superior inhibitory action,superior inhibitory action,strongest suppression,C=CC(C)Sc1cnccn1 (stereo not drawn) [Example 8],,40%,0.659 nmol/min/mg protein,45%,2.808 nmol/min/mg protein,140%,3.290 nmol/min/mg protein,181%,2.33 nmol/min/mg protein,≥ 70%,,,

# From US5658913A, “Chemopreventive compounds and a preparation method and use thereof” (Kim; Nak Doo, priority 1993, dated 1997)
